Measured values reported in patent US11685766B2, “14-3-3 targeting peptides for cancer treatment” (Creighton University, priority 2019, dated 2023).
Entries after “also recorded” stand apart in the source; their conditions may differ. Peptide text beside a SMILES is read from it.

What was measured:
[1] = system: SCC12B.2 cells; test: Caspase-3/7 Glo assay (apoptosis); format: cell-based, human; conditions: ES1P2 20 μM; pS 30 μM; pT 20 μM, 24 hours; vs vehicle
Experimental: Apoptosis was assessed using a Caspase-3/7 Glo assay (Promega Corporation, Madison, Wis., USA) in a 96-well white-bottom plate (BRANDplates, Wertheim, Germany) according to the manufacturer's instructions. Cells were seeded at a density of 8×10^3 cells/well and incubated overnight before treatments or transfections. Luminescence was read using a Cytation 5 multi-mode plate reader (BioTek Instruments, Winooski, Vt., USA).
Apoptosis was assessed using a Caspase-3/7 Glo assay (Promega) in a 96-well white-bottom plate (BRANDplates, Wertheim, Germany). Cells were seeded at a density of 8×10^3 cells/well and Caspase-3/7 glo was performed 24 hours post-treatment according to the manufacturer's instructions and read using a Cytation 5 multi-mode plate reader (BioTek, Instruments, Winooski, Vt., USA).

[2] = system: SCC13 cells xenograft tumors; test: Mouse SCC tumor xenografts (TUNEL, immunofluorescence, tumor growth); format: in vivo; conditions: for increase in number of TUNEL-positive SCC cells compared to vehicle: intratumoral 2.5 nmol/50 μL, NCG mice, SCC13; for tumor volume compared to vehicle-treated xenografts: mouse xenograft tumors; for P-Akt (S473) levels in SCC xenografts (immunofluorescence) / Survivin levels in SCC xenografts (immunofluorescence): vs vehicle-treated xenografts
Experimental: Immunofluorescence was performed using an alexa-fluor488-conjugated secondary antibody (IgG mouse or rabbit) (Invitrogen) with 4′,6-diamidino-2-phenylindole (DAPI) (Vector Labs, Burlingame, Calif., USA) to identify nuclei. Cellular localization of immunohistochemistry signal was determined in a double-blinded manner. Slides were digitalized and fluorescence intensity was measured using Image analysis was performed using the Olympus VS120 Slide Scanner and Olyvia Analysis Software, respectively (Olympus, Tokyo, Japan).
Groups of NCG mice (NOD CRISPR Prkdc Il2r gamma/NjuCrl) (Charles River, Malvern, Pa., USA) were injected s.c. with 5×10^5 SCC13 cells suspended in 1:1 mixture of 1×PBS:Matrigel (Corning, Corning, N.Y., USA). Once the tumors reached a volume of 150 mm^3, tumors were treated with either vehicle (50 μL 1×PBS) or 2.5 nmol/50 μL of the targeting peptide ES1P2. Tumors were injected directly with either vehicle or ES1P2 daily for 2 days or every other day for 2 weeks and then harvested for analysis 24 hours after the last treatment. Tumors were fixed overnight in 10% buffered formalin (Thermo Fisher) and then switched to 70% ethanol the following day. All procedures were performed in accordance with the guidance of Creighton University Institutional Animal Care and Use Committee.
TUNEL (Terminal deoxynucleotidyl transferase dUTP nick end labeling) was carried out using Promega DeadEnd Fluorometric TUNEL system in accordance with the manufacturer's instructions (Promega). Cells were treated with DAPI (Vector Labs) to locate the nuclei within cells. […] Slides were digitalized and apoptotic nuclei counted using an Olympus VS120 Slide Scanner (Olympus).
Immunostaining was performed using antibodies recognizing P-Akt (S473) (Thermo Fisher) and Survivin (Cell Signaling, Danvers, Mass., USA), with alexa-fluor488-conjugated secondary antibody (IgG rabbit) (Invitrogen) with 4′,6-diamidino-2-phenylindole (DAPI) (Vector Labs, Burlingame, Calif., USA) to identify the nuclei. Slides were digitalized and analyzed using an Olympus VS120 Slide Scanner (Olympus, Shinjuku, Tokyo, JPN).
Groups of NCG mice (NOD CRISPR Prkdc Il2r gamma/NjuCrl) (Charles River, Malvern, Pa., USA) were injected s.c. with 5×10^5 human SCC13 cells suspended in 1:1 mixture of 1×PBS:Matrigel (Corning, Corning, N.Y., USA). Once the tumors reached 150 mm^3 in volume they were treated intratumorally with either vehicle (1× sterile PBS, pH, 7.5), pS, or pT (2.5 nmol/50 μL for each) daily for 2 days and then the mice were euthanized 24 hours after the second treatment. Tumors were fixed overnight in 10% neutral buffered formalin (Thermo Fisher) and then switched to 70% ethanol the following day before embedding and sectioning. All procedures were performed in accordance with the guidance of the Creighton University Institutional Animal Care and Use Committee.
TUNEL (terminal uridine nick-end labelling) assays were carried out using the Promega DeadEnd Fluorometric TUNEL system in accordance with the manufacturer's instructions (Promega Corporation, Madison, Wis., USA). Cells were treated with 4′,6-diamidino-2-phenylindole (DAPI) to locate the nuclei within cells. Slides were scanned and analyzed using an Olympus VS120 Slide Scanner (Olympus).

SMILES	apoptosis of SCC cells (Caspase-3/7) [1]	increase in number of TUNEL-positive SCC cells compared to vehicle ([2]; 2 daily treatments) [%]	tumor volume compared to vehicle-treated xenografts [2]	P-Akt (S473) levels in SCC xenografts (immunofluorescence) [2]	Survivin levels in SCC xenografts (immunofluorescence) [2]	number of TUNEL-positive SCC cells compared to vehicle ([2]; intratumoral 2.5 nmol, 2 daily treatments)	reduction of SCC growth compared to vehicle ([2]; repeated intratumoral treatments of SCC xenografts, FIG. 1H/1I)
CC(=O)N[C@@H](CCCNC(=N)N)C(=O)N[C@H](C(=O)N[C@@H](CCCCN)C(=O)N[C@@H](CO)C(=O)N[C@@H](CCCNC(=N)N)C(=O)N[C@H](C(=O)N[C@@H](Cc1c[nH]c2ccccc12)C(=O)N[C@@H](C)C(=O)NCC(=O)N[C@@H](CCC(=O)O)C(=O)N[C@@H](CCCCN)C(=O)N[C@@H](CO)C(=O)N[C@@H](CCCCN)C(=O)N[C@@H](CCCNC(=N)N)C(N)=O)[C@@H](C)OP(=O)(O)O)[C@@H](C)O [pT, Ac-Arg-Thr-Lys-Ser-Arg-Thr(PO3^2−)-Trp-Ala-Gly-Glu-Lys-Ser-Lys-Arg-NH2] (HELM PEPTIDE1{[ac].R.T.K.S.R.[C[C@@H](OP(=O)(O)O)[C@H](N[*:1])C(=O)[*:2]].W.A.G.E.K.S.K.R.[am]}$$$$V2.0)	increased apoptosis	51	decreased volume	decreased	decreased	–	–
NCCCC[C@H](NC(=O)[C@H](Cc1c[nH]c2ccccc12)NC(=O)[C@H](Cc1ccc(O)cc1)NC(=O)[C@@H](N)Cc1c[nH]c2ccccc12)C(N)=O [ES1P2, Trp-Tyr-Trp-Lys-NH2] (H-WYWK-NH2)	increasing apoptosis to a statistically significant degree	–	decreased tumor growth; also recorded: reduced tumor volume	decreased	decreased	more than doubled	approximately one-third
CSCC[C@H](NC(=O)[C@H](CCCNC(=N)N)NC(=O)[C@@H]1CCCN1C(=O)[C@H](C)NC(=O)[C@H](COP(=O)(O)O)NC(=O)[C@H](CC(N)=O)NC(=O)[C@H](CCC(N)=O)NC(=O)[C@H](CCCNC(=N)N)NC(=O)[C@H](CCC(N)=O)NC(=O)[C@@H](NC(C)=O)[C@@H](C)O)C(=O)N[C@@H](CC(C)C)C(=O)N[C@@H](CO)C(=O)N[C@@H](CO)C(=O)N[C@@H](CC(N)=O)C(N)=O [pS, Ac-Thr-Gln-Arg-Gln-Asn-Ser-(PO3^2−)-Ala-Pro-Arg-Met-Leu-Ser-Ser-Asn-NH2] (HELM PEPTIDE1{[ac].T.Q.R.Q.N.[O=C([C@H](COP(=O)(O)O)N[*:1])[*:2]].A.P.R.M.L.S.S.N.[am]}$$$$V2.0)	increased apoptosis	25	decreased volume	decreased	decreased	–	–
